# Data: patent publication US10022362B2, “Anti-allergy benzocycloheptathiophene derivatives” (FUJIAN MINDONG REJUVENATION PHARMACEUTICAL CO., LTD., priority 2011, dated 2018)
# Legend:
# [1] = tested on: Mice sensitized with anti-DNP IgE mAb, DNP-BSA challenge; test: Prophylactic effects: IgE-mediated passive cutaneous anaphylaxis (Evan's blue dye leakage); type: in vivo
# Description: Mice were given 4-[1-(5-methyl-pyridin-3-ylmethyl)piperidin-4-ylidene]-4,9-dihydro-1-thia-benzo[f]azulen-10-one (1 mg/kg) or ketotifen (1 mg/kg) orally as per dosing schedule shown in FIG. 2A. Subsequently, mice were sensitized by intradermal injection of 20 ng antidinitrophenyl (DNP) IgE mAb (Sigma) into left ears, while right ear received saline as a control. After 24 h, mice were challenged by i.v. injection of 100 μg of DNP-Bovine Serum Albumin (BSA) (as an allergen) in 200 μl Evan's blue dye (1% wt/vol, Sigma). Thirty min later, ear punch (8 mm) was collected in 300 μl of formamide and incubated at 80° C. for 2 h in water bath to extract Evan's blue dye. The absorbance was determined at 620 nm. […] Granule-associated mediators such as histamine stimulate endothelium and blood vessel smooth muscle cells leading to increased vascular permeability.
# [2] = tested on: Mouse bone marrow derived eosinophils; test: Inhibition of eosinophil proliferation in vitro (3H-thymidine incorporation); type: cell-based; conditions: for thymidine incorporation (eosinophil proliferation): eosinophils cultured with IL-5 (50 ng/ml), treated 1 hour, 3H-thymidine pulse 18 hours, CPM
# Description: Mouse bone marrow derived eosinophils (1×10^5 cells/well) were seeded in 96 well plates in triplicate and were cultured with IL-5 (50 ng/ml). Eosinophils were treated with 4-[1-(5-methyl-pyridin-3-ylmethyl)piperidin-4-ylidene]-4,9-dihydro-1-thia-benzo[f]azulen-10-one (Compound A) or ketotifen for 1 hour. Cells were then pulsed with 0.5 μCi of ^3H-thymidine for 18 hours. Cells were harvested to glass fiber paper using a suction manifold and washed extensively to eliminate unincorporated thymidine. Fiber paper was dried and added to vials with 2.5 ml of scintillation fluid (Ecolite). Thymidine incorporation was measured on a Wallac beta counter.
# The incorporation of ^3H-thymidine (eosinophil proliferation) was quantified by liquid scintillation counting (CPM).
# [3] = tested on: Mice passively sensitized with anti-DNP IgE mAb, DNFB application; test: Therapeutic effects: IgE-mediated late phase cutaneous reactions (ear and foot swelling); type: in vivo; conditions: FIG. 3B
# Description: After 24 h, a cutaneous reaction was elicited by the application of 20 μL of DNFB (0.3% wt/vol, Sigma) in acetone-olive oil (4:1) to both sides of the left hind paw or left ear, and 20 μl of acetone-olive oil to the right hind paw or right ear as a control as shown in FIG. 3A. Three hours after DNFB application, mice were given 4-[1-(5-methyl-pyridin-3-ylmethyl)piperidin-4-ylidene]-4,9-dihydro-1-thia-benzo[f]azulen-10-one (1 mg/kg, p.o.), ketotifen (1 mg/kg, p.o.) or saline as control as indicated in FIG. 3A by the circled number “1”. The thickness of foot pad or ear was measured using a digital micrometer after 24 h of DNFB application. The weight of hind paw or ear punch (5 mm) was also determined. The thickness and weight of the right ear or right hind paw (treated with acetone-olive oil only) were used as baseline values. The DNFB-induced increment of tissue thickness was expressed as the percentage of the baseline values.
# [4] = tested on: Mice passively sensitized with anti-DNP IgE mAb, DNFB challenge; test: Prophylactic effects: IgE-mediated late phase cutaneous reactions (ear and foot swelling); type: in vivo; conditions: 1 mg/kg orally twice (before IgE injection and before DNFB challenge), thickness measured after 24 h, FIG. 1B
# Description: Mice were given 4-[1-(5-methyl-pyridin-3-ylmethyl)piperidin-4-ylidene]-4,9-dihydro-1-thia-benzo[f]azulen-10-one (1 mg/kg) or ketotifen (1 mg/kg) orally twice as per the schedule dosing regimen provided in FIG. 1A as indicated by the numbered dose in a circle. The first dose (indicated by a circled number 1) was given on day 1 before IgE injection and a 2nd dose (indicated by a circled number 2) was given on day 2 before dinitrofluorobenzene (DNFB, as an allergen) challenge. Mice were passively sensitized by i.v. injection of 2 μg anti-DNP IgE mAb (Sigma). After 24 h, a cutaneous reaction was elicited by the application of 20 μl of DNFB (0.3% wt/vol, Sigma) in acetone-olive oil (4:1) to both sides of the left hind paw or left ear, and 20 μl of acetone-olive oil to the right hind paw or right ear as a control. The thickness of foot pad or ear was measured using a digital micrometer after 24 h. The thickness of the right ear or right hind paw (treated with acetone-olive oil only) was used as baseline values. The DNFB-induced increment of tissue thickness was expressed as the percentage of the baseline values.
# [5] = tested on: Mouse bone marrow derived mast cells (BMMCs); test: Allergen-induced cytokine IL-6 production by mast cells in vitro; type: cell-based; conditions: FIG. 4
# Description: Mouse bone marrow derived mast cells (BMMCs) were resuspended in fresh complete medium supplemented with TIB141-conditioned medium enriched in IgE directed against trinitrophenyl (TNP) at a ratio of 3:1. BMMCs were typically sensitized at 0.5 million/ml. Following sensitization, BMMCs were washed extensively with RPMI 1640 supplemented with 10% FBS alone. BMMCs were then treated with 4-[1-(5-methyl-pyridin-3-ylmethyl)piperidin-4-ylidene]-4,9-dihydro-1-thia-benzo[f]azulen-10-one or ketotifen at the concentration of […], 1, 10 or 100 μM for 1 hour and subsequently stimulated with antigen TNP-BSA (10 ng/ml) for 6 h. Cytokine levels in the cell free supernatant were determined by ELISA.
# [6] = 1 mg/kg p.o. each, three hours after DNFB application
Compound,"allergen (DNP)-induced Evan's blue dye leakage ([1]; 1 mg/kg orally before sensitization, compared to the vehicle control, FIG. 2B)","time after oral administration at which inhibitory effects on Evan's blue dye leakage and tissue swelling were observed ([1]; 1 mg/kg orally, suggesting long-lasting effects) [h]",thymidine incorporation (eosinophil proliferation) [2],"inhibition on eosinophil proliferation, compared with ketotifen ([2]; p<0.01, n=3 experiments, FIG. 5)","block of swelling and weight increase of ear and feet, compared with ketotifen [3, 6]","foot weight, activity compared with ketotifen [3, 6]","DNP-induced swelling and increase the weight of the ear and the feet ([3]; 1 mg/kg p.o. three hours after DNFB application, measured 24 h after DNFB application)",allergen DNFB-induced ear and foot swelling [4],"cytokine IL-6 production by mast cells ([5]; BMMCs treated at 01, 1, 10 or 100 μM for 1 hour, then TNP-BSA (10 ng/ml) for 6 h, ELISA)","reduction of IL-6 production by mast cells, compared with ketotifen ([5]; equivalent concentrations (01, 1, 10 or 100 μM))"
"Cc1cncc(CN2CCC(=C3c4ccccc4CC(=O)c4sccc43)CC2)c1 [Compound A, 4-[1-(5-methyl-pyridin-3-ylmethyl)-piperidin-4-ylidene]-4,9-dihydro-1-thia-benzo[f]azulen-10-one]",strongly reduced,24,dose-dependently reduced,significantly stronger inhibition,comparable to ketotifen,surpassing the activity of ketotifen,significantly block,strongly reduced,significantly reduce,even more effective than ketotifen at some of the equivalent concentrations used
"CN1CCC(=C2c3ccccc3CC(=O)c3sccc32)CC1 [ketotifen, reference compound]",–,–,dose-dependently reduced,–,–,–,–,–,–,–
